Test results taken from ChEMBL document CHEMBL1133328, “Heterocyclic bibenzimidazole derivatives as topoisomerase I inhibitors” (Bioorg Med Chem Lett, 2000).

Columns and labels:
[1] = molecular target: T1, DNA topoisomerase 1 (Homo sapiens) (UniProt P11387); experiment: Relative effective concentration that produces the same degree of cleavage on the plasmid DNA in the presence of human topoisomerase-1
T1 sequence (whole entry): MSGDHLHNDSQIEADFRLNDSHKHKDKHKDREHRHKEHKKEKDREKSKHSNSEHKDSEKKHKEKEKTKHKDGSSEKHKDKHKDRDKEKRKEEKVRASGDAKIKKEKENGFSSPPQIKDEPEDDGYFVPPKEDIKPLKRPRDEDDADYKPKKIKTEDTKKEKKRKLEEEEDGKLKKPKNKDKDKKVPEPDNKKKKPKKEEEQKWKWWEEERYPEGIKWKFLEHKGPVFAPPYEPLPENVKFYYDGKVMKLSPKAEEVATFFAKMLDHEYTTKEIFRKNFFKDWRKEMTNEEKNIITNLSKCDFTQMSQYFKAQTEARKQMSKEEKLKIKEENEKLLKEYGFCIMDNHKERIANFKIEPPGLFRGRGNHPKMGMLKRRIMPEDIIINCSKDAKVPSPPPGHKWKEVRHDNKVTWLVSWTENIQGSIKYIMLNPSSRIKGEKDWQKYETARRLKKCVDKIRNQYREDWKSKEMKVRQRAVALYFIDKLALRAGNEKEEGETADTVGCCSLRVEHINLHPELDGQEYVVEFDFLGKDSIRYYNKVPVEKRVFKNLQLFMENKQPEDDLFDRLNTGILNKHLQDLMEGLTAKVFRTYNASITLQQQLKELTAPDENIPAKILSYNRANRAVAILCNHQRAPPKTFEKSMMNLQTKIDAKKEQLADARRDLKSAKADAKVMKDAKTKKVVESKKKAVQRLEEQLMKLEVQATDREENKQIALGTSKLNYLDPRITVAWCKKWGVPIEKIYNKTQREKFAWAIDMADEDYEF

Nucleic Acid [2] = experiment: Compound-poly(dA).poly(dT) association constant at the melting temperature (81.5 degree C) DNA complex was determined; type: nucleic-acid assay
Nucleic Acid [3] = experiment: Compound-poly(dA).poly(dT) association constant at the melting temperature (80 degree C) of the compound-DNA complex was determined; type: nucleic-acid assay
Nucleic Acid [4] = experiment: Compound-poly(dA).poly(dT) association constant at the melting temperature (73.4 degree C) DNA complex was determined; type: nucleic-acid assay

Row | Structure (SMILES) | Topoisomerase-I activity [1] | K Tm (Nucleic Acid [2]) | K Tm (Nucleic Acid [3]) | K Tm (Nucleic Acid [4])
1 | Oc1nc2ccc(-c3nc4cc(-c5nc6cc(-c7ccccc7)ccc6[nH]5)ccc4[nH]3)cc2nc1O | 1 | – | – | –
2 | c1ccc(-c2ccc3[nH]c(-c4ccc5[nH]c(-c6ccc7[nH]cnc7c6)nc5c4)nc3c2)cc1 | 1 | 2.8e+08 M⁻¹ | – | –
3 | c1ccc(-c2ccc3[nH]c(-c4ccc5[nH]c(-c6ccc7[nH]nnc7c6)nc5c4)nc3c2)cc1 | 1 | – | – | –
4 | c1ccc(-c2ccc3[nH]c(-c4ccc5[nH]c(-c6ccc7cc[nH]c7c6)nc5c4)nc3c2)cc1 | 5 | – | 1.9e+08 M⁻¹ | –
5 | c1ccc(-c2ccc3[nH]c(-c4ccc5[nH]c(-c6ccc7[nH]ccc7c6)nc5c4)nc3c2)cc1 | 50 | – | – | 3.5e+07 M⁻¹
6 | c1ccc(-c2ccc3[nH]c(-c4ccc5[nH]c(-c6ccc7nccnc7c6)nc5c4)nc3c2)cc1 | > 100 | – | – | –
